The values that follow come from paper PMC11325505, “Nitrogen-Containing Flavonoids—Preparation and Biological Activity” (ACS Omega, 2024).

Values after ≈ are worked out from the molar mass of the structure shown.

One assay has as its system RAW 264.7 cells. Description: Cellular antioxidant activity (CAA). The class given is cell-based, Murine. Conditions: Mus musculus, RAW264.7, macrophages RAW 264.7; average of four repetitions ± standard error of the mean.
Assay [1] has as its system interleukin 6 (IL-6) production by RAW 264.7 stimulated by LPS. In words: Anti-inflammatory activity: IL-6 production by LPS-stimulated macrophages. The settings on record: Mus musculus, RAW264.7; LPS-stimulated RAW 264.7; average of four repetitions ± SEM. The class given is cell-based, Murine. In a few lines:
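RAW 264.7 macrophages seeded 48 h, then LPS (100 ng/mL) with compounds (3–100 μM). For TNF-α, 24 h compound preculture then 2 h LPS; for IL-6, 6 h with LPS plus compounds; cytokines measured by ELISA. Viability checked by resazurin.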

Assay [2] relates to immortalized human keratinocytes (HaCaT). Description: Cytotoxicity (resazurin assay), keratinocytes. It is filed as cell-based. Conditions: Homo sapiens, HaCaT, 72 h, 72 h incubation, resazurin; average of three repetitions ± SEM; read-out: HaCaT IC50 (concentration that halved the viability). On the technique in general: Alamar Blue is a resazurin reagent that responds to reducing activity.

The next assay concerns MRSA 3596. In words: Mode of antimicrobial action with erythromycin or gentamicin, ermA- and aadD-positive strain. It is filed as cell-based, S. aureus.
For a further assay, the system named is MRSA 1584. Description: Mode of antimicrobial action with gentamicin, aac(6')/aph(2')-positive strain. The class given is cell-based, Staphylococcus aureus. In a few lines:
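Gentamicin-resistance sensitization run in MRSA 1584, a strain that inactivates gentamicin only via aac(6')-aph(2''), with gentamicin at its EUCAST cutoff concentration and derivatives at up to 200 μM. Viable cells were estimated from A600 after 24 h at 37 °C, 120 rpm. MIC taken as IC70; IC70 and IC50 obtained by nonlinear regression.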

A further assay relates to S. aureus MRSA 9. In words: Antibacterial activity, multidrug-resistant strain. It is filed as cell-based. The settings on record: Staphylococcus aureus, MRSA; multidrug-resistant strain; three repetitions ± SEM. In a few lines:
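Flavonoid derivatives tested alone and, from 1 μM up to the highest nontoxic concentration (at most 200 μM), combined with antibiotics at EUCAST v11.0 breakpoint concentrations. Growth estimated by absorbance at 600 nm after 24 h at 37 °C, 120 rpm; MIC taken as IC70 by nonlinear regression.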

`COc1ccc(Nc2c(O)cc(O)c3c(=O)cc(-c4ccc(O)c(O)c4)oc23)cc1` [compound 12, 2-(3,4-Dihydroxyphenyl)-8-(4-methoxyanilino)-5,7-dihydroxy-4H–1-benzopyran-4-one]: the IC50 in the assay with RAW 264.7 cells was determined as 3.4 ± 0.1 µM; in assay [1], 15.3 ± 0.5 µM; in assay [2] it was 59.3 ± 6.3 µM; in the assay on S. aureus MRSA 9, 112 ± 1.2 µM. In addition, in the assay on MRSA 3596 (MRSA 3596), the “effect (mode of action with erythromycin)” value is listed as “synergy (Fractional Inhibitory Concentration Index (FIC) < 0.5 indicates synergism)”. In addition, the “effect (mode of action with gentamicin)” value in the assay on MRSA 3596 (MRSA 3596) is reported as “synergy (Fractional Inhibitory Concentration Index (FIC) < 0.5 indicates synergism)”; in the assay on MRSA 1584 (MRSA 1584), “additive (> 0.5-1 indicates additive effects)”. Besides, the “MIC, Gentamicin [1 mg/L] yes” value with MRSA 3596 (MRSA 3596 (aadD), with gentamicin 1 mg/L) came to 31.4 ± 1.0 µM (≈ 12.8 µg/mL); against MRSA 1584 (MRSA 1584 (aac(6')/aph(2')), with gentamicin 1 mg/L), 47.1 ± 0.8 µM (≈ 19.2 µg/mL). The “MIC, erythromycin [1 mg/L] yes” value with MRSA 3596 (MRSA 3596 (ermA), with erythromycin 1 mg/L) was 20.0 ± 0.6 µM (≈ 8.15 µg/mL). For the same compound, the “MIC, erythromycin [1 mg/L] no” value in the assay with MRSA 3596 (MRSA 3596 (ermA), without erythromycin, Table 4) was 53.6 ± 0.5 µM (≈ 21.8 µg/mL). Also, the “FIC (Fractional Inhibitory Concentration Index)” value in the assay on MRSA 3596 (MRSA 3596, with erythromycin) was 0.37 ± 0.01; in the assay with MRSA 3596 (MRSA 3596, with gentamicin), 0.34 ± 0.01; with MRSA 1584 (MRSA 1584, with gentamicin) it was 0.65 ± 0.03. Moreover, the MIC came to 91 ± 0.9 µM (≈ 37.1 µg/mL) in the assay with MRSA 3596 (Staphylococcus aureus, 24 h, read-out: MIC, Gentamicin [1 mg/L] no, MRSA 3596 (aadD), without gentamicin, Table S6) and 72.9 ± 2.4 µM (≈ 29.7 µg/mL) with MRSA 1584 (Staphylococcus aureus, 24 h, read-out: MIC, Gentamicin [1 mg/L] no, MRSA 1584, without gentamicin).
